Patent US7875600B2, “Pyrimidine compounds as purine receptor antagonist” (Vernalis (R&D) Limited, priority 2004, dated 2011)

Row | Compound | melting point
1 | Nc1nc(C(=O)NCCCn2ccnc2)cc(-c2ccco2)n1 [Example 96, 2-Amino-6-(2-furyl)-N-(3-(1H-imidazol-1-yl)propyl)pyrimidine-4-carboxamide] | 248.2 to 249 °C
2 | Nc1nc(C(=O)NCc2nc3ccccc3[nH]2)cc(-c2ccco2)n1 [Example 17, 2-Amino-N-(1H-benzimidazol-2-ylmethyl)-6-(2-furyl)pyrimidine-4-carboxamide] | 290.9 to 291.3 °C
3 | Nc1nc(C(=O)N2CCCCC2)cc(-c2ccco2)n1 [Example 5, 1-(2-Amino-6-(2-furyl)pyrimidin-4-ylcarbonyl)piperidine] | 139.5 to 143 °C
4 | Nc1nc(C(=O)NCc2cccc(Br)n2)cc(-c2ccco2)n1 [Example 94, 2-Amino-N-(6-bromopyridin-2-ylmethyl)-6-(2-furyl)pyrimidine-4-carboxamide] | 178.1 to 179.3 °C
5 | COc1cccc(CNC(=O)c2cc(-c3ccco3)nc(N)n2)c1 [Example 3, 2-Amino-6-(2-furyl)-N-(3-methoxybenzyl)pyrimidine-4-carboxamide] | 229.2 to 234.5 °C
6 | Nc1nc(C(=O)NC2CCc3ccccc32)cc(-c2ccco2)n1 (stereo in doubt) [Example 78, (R)-2-Amino-6-(2-furyl)-N-(1-indanyl)pyrimidine-4-carboxamide] | 126.7 to 127.2 °C
7 | COCc1ccc(C)c(CNC(=O)c2cc(-c3ccco3)nc(N)n2)n1 [Example 46, 2-Amino-6-(2-furyl)-N-(6-methoxymethyl-3-methylpyridin-2-ylmethyl)pyrimidine-4-carboxamide] | 148 to 148.4 °C
8 | Nc1nc(C(=O)NCc2ccc3[nH]ccc3c2)cc(-c2ccco2)n1 [Example 35, 2-Amino-6-(2-furyl)-N-(5-indolylmethyl)pyrimidine-4-carboxamide] | 170.1 to 170.5 °C
9 | Cc1cc2cc(CNC(=O)c3cc(-c4ccco4)nc(N)n3)ccc2[nH]1 [Example 40, 2-Amino-6-(2-furyl)-N-(2-methylindol-5-ylmethyl)pyrimidine-4-carboxamide] | 105.6 to 105.7 °C
10 | CCCc1cccc(CNC(=O)c2cc(-c3nccs3)nc(N)n2)n1 [Example 109, 2-Amino-N-(6-n-propylpyridin-2-ylmethyl)-6-(thiazol-2-yl)pyrimidine-4-carboxamide] | 144.1 to 144.3 °C
11 | C[C@H](NC(=O)c1cc(-c2ccco2)nc(N)n1)c1ccccc1 [Example 60, (S)-2-Amino-6-(2-furyl)-N-(1-phenylethyl)pyrimidine-4-carboxamide] | 158.7 to 158.9 °C
12 | CCCn1ccnc1CNC(=O)c1cc(-c2ccco2)nc(N)n1 [Example 92, 2-Amino-6-(2-furyl)-N-(1-n-propyl-1H-imidazol-2-ylmethyl)pyrimidine-4-carboxamide] | 270.7 to 271.5 °C
13 | Nc1nc(C(=O)NCc2ncc[nH]2)cc(-c2ccco2)n1 [Example 91, 2-Amino-6-(2-furyl)-N-(1H-imidazol-2-ylmethyl)pyrimidine-4-carboxamide] | > 200 °C (dec.)
14 | Nc1nc(C(=O)NCc2ncccc2CN2CCOCC2)cc(-c2ccco2)n1 [Example 22, 2-Amino-6-(2-furyl)-N-(3-(4-morpholinylmethyl)pyridin-2-ylmethyl)pyrimidine-4-carboxamide] | 195.5 to 197.5 °C
15 | CCn1ccnc1CNC(=O)c1cc(-c2ccco2)nc(N)n1 [Example 98, 2-Amino-N-(1-ethyl-1H-imidazol-2-ylmethyl)-6-(2-furyl)pyrimidine-4-carboxamide] | 263.1 to 264.9 °C
16 | Nc1nc(C(=O)N2CCCc3ccccc32)cc(-c2ccco2)n1 [Example 72, 1-(2-Amino-6-(2-furyl)pyrimidin-4-ylcarbonyl)-1,2,3,4-tetrahydroquinoline] | 203.8 to 204.5 °C
17 | Cn1ccnc1CNC(=O)c1cc(-c2ccco2)nc(N)n1 [Example 34, 2-Amino-6-(2-furyl)-N-(1-methyl-1H-imidazol-2-ylmethyl)pyrimidine-4-carboxamide] | 209.5 to 210.3 °C
18 | Nc1nc(C(=O)N2CCc3ccccc3C2)cc(-c2ccco2)n1 [Example 71, 2-(2-Amino-6-(2-furyl)pyrimidin-4-ylcarbonyl)-1,2,3,4-tetrahydroisoquinoline] | 193.3 to 193.6 °C
19 | Nc1nc(C(=O)NC2CCc3ccccc32)cc(-c2ccco2)n1 (stereo in doubt) [Example 79, (S)-2-Amino-6-(2-furyl)-N-(1-indanyl)pyrimidine-4-carboxamide] | 111.8 to 112.5 °C
20 | CCCNC(=O)OCc1cccc(CNC(=O)c2cc(-c3ccco3)nc(N)n2)n1 [Example 85, 6-(2-Amino-6-(2-furyl)pyrimidine-4-carboxamidomethyl)pyridin-2-ylmethyl n-propylcarbamate] | 151.6 to 155.7 °C
21 | Nc1nc(C(=O)NCc2ccc3nsnc3c2)cc(-c2ccco2)n1 [Example 53, 2-Amino-N-([2,1,3]benzothiadiazol-5-ylmethyl)-6-(2-furyl)pyrimidine-4-carboxamide] | 171.2 to 172.1 °C

Row | Compound | melting point
22 | NC(=O)c1cc(-c2ccco2)nc(N)n1 [Example 8, 2-Amino-6-(2-furyl)pyrimidine-4-carboxamide] | 218 to 219.8 °C
23 | Nc1nc(C(=O)N2CCc3ccccc32)cc(-c2ccco2)n1 [Example 75, 1-(2-Amino-6-(2-furyl)pyrimidin-4-ylcarbonyl)-2,3-dihydroindole] | 251.9 to 252.3 °C
24 | CC(C)NC(=O)OCc1cccc(CNC(=O)c2cc(-c3ccco3)nc(N)n2)n1 [Example 41, 6-(2-Amino-6-(2-furyl)pyrimidine-4-carboxamidomethyl)pyridin-2-ylmethyl isopropylcarbamate] | 155.2 to 155.7 °C
25 | CN(C)c1ccc(CNC(=O)c2cc(-c3ccco3)nc(N)n2)cc1 [Example 9, 2-Amino-6-(2-furyl)-N-(4-dimethylaminobenzyl)pyrimidine-4-carboxamide] | 202.4 to 202.9 °C
26 | COc1nc(C)ccc1CNC(=O)c1cc(-c2ccco2)nc(N)n1 [Example 29, 2-Amino-6-(2-furyl)-N-(2-methoxy-6-methylpyridin-3-ylmethyl)pyrimidine-4-carboxamide] | 178 to 178.1 °C
27 | Nc1nc(C(=O)N2Cc3ccccc3C2)cc(-c2ccco2)n1 [Example 66, 2-(2-Amino-6-(2-furyl)pyrimidin-4-ylcarbonyl)-2,3-dihydro-1H-isoindole] | 226.2 to 226.3 °C
28 | Nc1nc(C(=O)NCCCc2ccccc2)cc(-c2ccco2)n1 [Example 83, 2-Amino-6-(2-furyl)-N-(3-phenylpropyl)pyrimidine-4-carboxamide] | 131 to 131.1 °C
29 | Cc1ccc(COCC2CC2)nc1CNC(=O)c1cc(-c2ccco2)nc(N)n1 [Example 59, 2-Amino-N-(6-cyclopropylmethoxymethyl-3-methylpyridin-2-ylmethyl)-6-(2-furyl)pyrimidine-4-carboxamide] | 154.5 to 156.9 °C
30 | Nc1nc(C(=O)NCc2cccc(C(F)(F)F)c2)cc(-c2ccco2)n1 [Example 16, 2-Amino-N-(3-trifluoromethylbenzyl)-6-(2-furyl)pyrimidine-4-carboxamide] | 170.6 to 170.7 °C
31 | C[C@@H](NC(=O)c1cc(-c2ccco2)nc(N)n1)c1ccccc1 [Example 63, (R)-2-Amino-6-(2-furyl)-N-(1-phenylethyl)pyrimidine-4-carboxamide] | 158.8 to 159.1 °C
32 | COCc1cccc(CNC(=O)c2nc(N)nc(-c3ccc(C)o3)c2Br)n1 [Example 117, 2-Amino-5-bromo-N-(6-methoxymethylpyridin-2-ylmethyl)-6-(5-methyl-2-furyl)pyrimidine-4-carboxamide] | 193.5 to 195.1 °C
33 | Cc1[nH]c2ccc(CNC(=O)c3cc(-c4ccco4)nc(N)n3)cc2c1C [Example 36, 2-Amino-N-(2,3-dimethylindol-5-ylmethyl)-6-(2-furyl)pyrimidine-4-carboxamide] | 155.9 to 156 °C
34 | COCc1cccc(CNC(=O)c2nc(N)nc(-c3ccc(C)o3)c2Cl)n1 [Example 116, 2-Amino-5-chloro-N-(6-methoxymethylpyridin-2-ylmethyl)-6-(5-methyl-2-furyl)pyrimidine-4-carboxamide] | 168.6 to 168.9 °C
35 | Cc1ccc(CNC(=O)c2cc(-c3ccco3)nc(N)n2)c(N(C)C)n1 [Example 102, 2-Amino-N-(2-dimethylamino-6-methylpyridin-3-ylmethyl)-6-(2-furyl)pyrimidine-4-carboxamide] | 203 to 203.1 °C
36 | Nc1nc(C(=O)NCc2ccc3cc[nH]c3c2)cc(-c2ccco2)n1 [Example 48, 2-Amino-6-(2-furyl)-N-(6-indolylmethyl)pyrimidine-4-carboxamide] | 193.8 to 194 °C
37 | Cc1cc(CNC(=O)c2cc(-c3ccco3)nc(N)n2)ccc1[N+](=O)[O-] [Example 37, 2-Amino-6-(2-furyl)-N-(3-methyl-4-nitrobenzyl)pyrimidine-4-carboxamide] | 191.8 to 192.2 °C
38 | Nc1nc(C(=O)NCc2nc3ccccc3s2)cc(-c2ccco2)n1 [Example 58, 2-Amino-N-(benzothiazol-2-ylmethyl)-6-(2-furyl)pyrimidine-4-carboxamide] | 219.9 to 222.3 °C
39 | Nc1nc(C(=O)NC2Cc3ccccc3C2)cc(-c2ccco2)n1 [Example 90, 2-Amino-6-(2-furyl)-N-(2-indanyl)pyrimidine-4-carboxamide] | 220 to 221.3 °C
40 | Nc1nc(C(=O)NCc2cccc3cccnc23)cc(-c2ccco2)n1 [Example 49, 2-Amino-6-(2-furyl)-N-(quinolin-8-ylmethyl)pyrimidine-4-carboxamide] | 230.7 to 230.9 °C
41 | Cc1cnc(CNC(=O)c2cc(-c3ccco3)nc(N)n2)cn1 [Example 88, 2-Amino-6-(2-furyl)-N-(5-methylpyrazin-2-ylmethyl)pyrimidine-4-carboxamide] | 191.9 to 192 °C
42 | Nc1nc(C(=O)NCc2ccc3ccccc3n2)cc(-c2ccco2)n1 [Example 57, 2-Amino-6-(2-furyl)-N-(quinolin-2-ylmethyl)pyrimidine-4-carboxamide] | 180.9 to 181.4 °C
